Reference: US20260022143A1, “Cyclic Peptide Inhibitors of IL-23” (JANSSEN PHARMACEUTICA NV, priority 2022, published 2026)
Starred links: 1 amine or outer side, 2 acyl side, 3 side chain; linkers in the order of their positions; H or OH if unused. Positions of bridges follow the written chain, without caps; N, C: chain ends. Non-standard residues stand in square brackets, D forms with d. Residues, ends and D or L forms follow the SMILES beside them. *: point of attachment. Me3N+(CH2)2O(CH2)2O(CH2)2CO = C[N+](C)(C)CCOCCOCCC(=O)*; CH2CH2OCH2CH2OCH2CH2NMe3+ = C[N+](C)(C)CCOCCOCC*; Trp(7-Me) = Cc1cccc2c(C[C@H](N)C(=O)O)c[nH]c12; Hexanoyl(6-NMe3+) = C[N+](C)(C)CCCCCC(=O)*; Decanoyl(3,6,9-trioxa) = COCCOCCOCC(=O)*; Dab(NMeAc) = CC(=O)N(C)CC[C@H](N)C(=O)O; X1 = CN(CC[C@H](N[*:1])C(=O)[*:2])[*:3]; 2Nal = N[C@@H](Cc1ccc2ccccc2c1)C(=O)O; AEF = NCCOc1ccc(C[C@H](N)C(=O)O)cc1; X24 = C[N+](C)(CCN[*:1])CC(=O)[*:2]; 3Pal = N[C@@H](Cc1cccnc1)C(=O)O; Lys(Me) = CNCCCC[C@H](N)C(=O)O; Pen = CC(C)(S)[C@H](N)C(=O)O; X4 = COCCOCCCN(CCCOCCOC)CC*; Thp = NC1(C(=O)O)CCOCC1; Dap = NC[C@H](N)C(=O)O; X61 = COCCOCCCNCC*; Sar = CNCC(=O)O

Experiment: Exposed Polar Surface Area (EPSA)
Assay type: physicochemical
Details: SFC on Chirex 3014 column; sample 1 mM DMSO stock; read-out: EPSA
Summary of the method: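 Chirex 3014 column, 35 °C, 4 mL/min; CO2/MeOH + 20 mM NH4 formate, 5→60% modifier at 20%/min. UV/MS detection. EPSA (Å^2) from retention time vs 8-standard calibration line; duplicates; 1 mM DMSO stock injected undiluted.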

CC(=O)N(C)CC[C@H](NC(=O)C1(NC(=O)[C@H](Cc2ccc3ccccc3c2)NC(=O)[C@H](Cc2ccc(OCCN)cc2)NC(=O)[C@H]2NC(=O)[C@H](CCN(C)C(=O)CCOCCOCC[N+](C)(C)C)NC(=O)[C@H](Cc3c[nH]c4c(C)cccc34)NC(=O)[C@H]([C@@H](C)O)NC(=O)[C@H](CC(=O)N(C)C)NC(=O)[C@@H](NC(=O)CCOCCOCC[N+](C)(C)C)C(C)(C)SSC2(C)C)CCOCC1)C(=O)N[C@@H](CC(N)=O)C(=O)N[C@@H](Cc1cccnc1)C(=O)N(C)CC(=O)N(C)C [compound 196, cPEG3aCO-Pen(3)-N(N(Me)2)-T-7MeW-Dab(NMecPEG3a)-Pen(3)-AEF-2Nal-THP-Dab(NMeAc)-N-3Pya-Sar-CON(Me)2] ({Me3N+(CH2)2O(CH2)2O(CH2)2CO}-[Pen]D(NMe2)T[Trp(7-Me)][X1](Me3N+(CH2)2O(CH2)2O(CH2)2CO)[Pen][AEF][2Nal][Thp][Dab(NMeAc)]N[3Pal][Sar]-NMe2; disulfide 1-6 (inferred))
EPSA: 149 A^2

COCCOCCOCC(=O)NCC[N+](C)(C)CC(=O)N[C@@H]1C(=O)N[C@@H](CC(=O)N(C)C)C(=O)N[C@@H]([C@@H](C)O)C(=O)N[C@@H](Cc2c[nH]c3c(C)cccc23)C(=O)N[C@@H](CCCCN(C)C(C)=O)C(=O)N[C@H](C(=O)N[C@@H](Cc2ccc(OCCOCCOCC[N+](C)(C)C)cc2)C(=O)N[C@@H](Cc2ccc3ccccc3c2)C(=O)NC2(C(=O)N[C@@H](CCN(C)C(C)=O)C(=O)N[C@@H](CC(N)=O)C(=O)N[C@@H](Cc3cccnc3)C(=O)N(C)CC(=O)N(C)C)CCOCC2)C(C)(C)SSC1(C)C [compound 197, mPEG3CO-SP6-Pen(3)-N(N(Me)2)-T-7MeW-K(NMeAc)-Pen(3)-APEG3F-2Nal-THP-Dab(NMeAc)-N-3Pya-Sar-CON(Me)2] ({Decanoyl(3,6,9-trioxa)}-[X24][Pen]D(NMe2)T[Trp(7-Me)][Lys(Me)](Ac)[Pen]Y(CH2CH2OCH2CH2OCH2CH2NMe3+)[2Nal][Thp][Dab(NMeAc)]N[3Pal][Sar]-NMe2; disulfide 2-7)
EPSA: 137 A^2

COCCOCCCNCCOc1ccc(C[C@H](NC(=O)[C@H]2NC(=O)[C@H](CCCCNC(C)=O)NC(=O)[C@H](Cc3c[nH]c4c(C)cccc34)NC(=O)[C@H]([C@@H](C)O)NC(=O)[C@H](CC(N)=O)NC(=O)[C@@H](NC(=O)CCCCC[N+](C)(C)C)C(C)(C)SSC2(C)C)C(=O)N[C@@H](Cc2ccc3ccccc3c2)C(=O)NC2(C(=O)N[C@@H](CNC(C)=O)C(=O)N[C@@H](CC(N)=O)C(=O)N[C@@H](Cc3cccnc3)C(=O)N(C)CC(N)=O)CCOCC2)cc1 [compound 204] ({Hexanoyl(6-NMe3+)}-[Pen]NT[Trp(7-Me)]K(Ac)[Pen]Y(X61)[2Nal][Thp][Dap](Ac)N[3Pal][Sar]-NH2; disulfide 1-6)
EPSA: 153 A^2

COCCOCCCN(CCCOCCOC)CCOc1ccc(C[C@H](NC(=O)[C@H]2NC(=O)[C@H](CCCCNC(C)=O)NC(=O)[C@H](Cc3c[nH]c4c(C)cccc34)NC(=O)[C@H]([C@@H](C)O)NC(=O)[C@H](CC(N)=O)NC(=O)[C@@H](NC(=O)CCCCC[N+](C)(C)C)C(C)(C)SSC2(C)C)C(=O)N[C@@H](Cc2ccc3ccccc3c2)C(=O)NC2(C(=O)N[C@@H](CNC(C)=O)C(=O)N[C@@H](CC(N)=O)C(=O)N[C@@H](Cc3cccnc3)C(=O)N(C)CC(N)=O)CCOCC2)cc1 [compound 205] ({Hexanoyl(6-NMe3+)}-[Pen]NT[Trp(7-Me)]K(Ac)[Pen]Y(X4)[2Nal][Thp][Dap](Ac)N[3Pal][Sar]-NH2; disulfide 1-6)
EPSA: 149 A^2
